From ChEMBL document CHEMBL1201862, “PubChem BioAssay data set” (2004)
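Where inhibition never reached the appropriate level, the endpoint shown equals the highest concentration tested. Otherwise, values were interpolated linearly from a five-concentration, 48-hour dose response in 96-well plates. GI50 is the concentration that inhibits growth by half.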 The source made the active and inactive calls. Rule as the data show it: active = GI50 up to about 1.1 µM and inactive = higher.

Tests used:
Experiment in all cases: NCI tumour cell line growth inhibition, 48 h
DU-145 = system: DU-145
HCT-116 = system: HCT-116
HL-60 = system: HL-60
LOX IMVI = system: LOX IMVI
M14 = system: M14
MCF7 = system: MCF7
MDA-N = system: MDA-N
MOLT-4 = system: MOLT-4
NCI-H226 = system: NCI-H226
NCI-H460 = system: NCI-H460
NCI-H522 = system: NCI-H522
PC-3 = system: PC-3
SF-268 = system: SF-268
SF-295 = system: SF-295
SK-MEL-28 = system: SK-MEL-28
SK-MEL-2 = system: SK-MEL-2
SR = system: SR
T47D = system: T47D
TK-10 = system: TK-10
UACC-257 = system: UACC-257

Structure (SMILES) | GI50 (DU-145) | GI50 (HCT-116) | GI50 (HL-60) | GI50 (LOX IMVI) | GI50 (M14) | GI50 (MCF7) | GI50 (MDA-N) | GI50 (MOLT-4) | GI50 (NCI-H226) | GI50 (NCI-H460) | GI50 (NCI-H522) | GI50 (PC-3) | GI50 (SF-268) | GI50 (SF-295) | GI50 (SK-MEL-28) | GI50 (SK-MEL-2) | GI50 (SR) | GI50 (T47D) | GI50 (TK-10) | GI50 (UACC-257)
CCOP(=O)(OCC)C(Nc1cccc([N+](=O)[O-])c1)c1ccccc1 (stereo unspecified) | > 100 µM (inactive) | 65 µM (inactive) | 39.9 µM (inactive) | 73.3 µM (inactive) | > 100 µM (inactive) | > 100 µM (inactive) | > 100 µM (inactive) | 39.4 µM (inactive) | > 100 µM (inactive) | 80 µM (inactive) | 90.2 µM (inactive) | 38.6 µM (inactive) | > 100 µM (inactive) | > 100 µM (inactive) | > 100 µM (inactive) | 82.4 µM (inactive) | > 100 µM (inactive) | 18.8 µM (inactive) | > 100 µM (inactive) | 72.1 µM (inactive)
CC(=O)Nc1ccc2c(C)c3c4ccccc4n(C)c3nc2n1 | 21 µM (inactive) | 7.1 µM (inactive) | 12.9 µM (inactive) | 12.6 µM (inactive) | 20.7 µM (inactive) | 20.8 µM (inactive) | 17.1 µM (inactive) | 5.83 µM (inactive) | 29.6 µM (inactive) | 2.92 µM (inactive) | 16.1 µM (inactive) | 18.9 µM (inactive) | 17.8 µM (inactive) | 19.9 µM (inactive) |  | 20.6 µM (inactive) | 10.6 µM (inactive) | 18.4 µM (inactive) | 32.9 µM (inactive) | 26.9 µM (inactive)
N#C/C(=C/N1C(=O)/C(=C/c2ccc([N+](=O)[O-])cc2)SC1=S)c1nc2ccccc2s1 | 31.8 µM (inactive) | 14.3 µM (inactive) | 17.5 µM (inactive) | 26.4 µM (inactive) | 27.8 µM (inactive) | 15.6 µM (inactive) | 24.4 µM (inactive) |  | 12.2 µM (inactive) | 14.8 µM (inactive) | 12.6 µM (inactive) | 13.8 µM (inactive) | 24.7 µM (inactive) | 11.3 µM (inactive) | 30.1 µM (inactive) | 16.7 µM (inactive) | 25.6 µM (inactive) | 8.85 µM (inactive) | 26.9 µM (inactive) | 14.2 µM (inactive)
CC(C)(C)C1CCC2(CC1)CCN(CCCN1CCOCC1)CC2 | > 100 µM (inactive) | 27.6 µM (inactive) | 13.1 µM (inactive) | 18.9 µM (inactive) | 12.2 µM (inactive) | > 100 µM (inactive) | 28.8 µM (inactive) | 24.5 µM (inactive) | > 95.7 µM (inactive) | 39.7 µM (inactive) | > 51.1 µM (inactive) | > 100 µM (inactive) | > 83 µM (inactive) | > 47.1 µM (inactive) | 16.9 µM (inactive) | 20 µM (inactive) | 27.1 µM (inactive) | 42.9 µM (inactive) | > 100 µM (inactive) | 11.9 µM (inactive)
Cc1cc2c(O)c(c1)COCc1cc(C)cc(c1O)COCc1cc(C)cc(c1O)COC2 | > 100 µM (inactive) | 32.7 µM (inactive) | > 100 µM (inactive) |  | > 100 µM (inactive) | > 100 µM (inactive) | > 100 µM (inactive) | > 100 µM (inactive) | > 100 µM (inactive) | 92 µM (inactive) | 49.2 µM (inactive) | > 100 µM (inactive) | > 100 µM (inactive) | > 100 µM (inactive) | > 100 µM (inactive) | > 100 µM (inactive) | 91 µM (inactive) | > 100 µM (inactive) |  | > 100 µM (inactive)
CC(=O)O[C@@H]1C(=O)N(c2ccccc2)[C@@H]1c1cc2ccccc2c2ccccc12 | 40.8 µM (inactive) | 27.5 µM (inactive) | 26.4 µM (inactive) | 20 µM (inactive) | 55.3 µM (inactive) | 34.2 µM (inactive) | 43 µM (inactive) | 12.3 µM (inactive) | 7.1 µM (inactive) | 31.4 µM (inactive) | 3.01 µM (inactive) | 32.9 µM (inactive) | 44.3 µM (inactive) | 38 µM (inactive) | 56 µM (inactive) | 14.4 µM (inactive) | 15.5 µM (inactive) | 18.7 µM (inactive) | 30.9 µM (inactive) | 25.5 µM (inactive)
Cn1c(CO)ccc1-c1ccc(-c2ccc[se]2)[se]1 | 17.7 µM (inactive) |  | 21.8 µM (inactive) | 47.9 µM (inactive) | 42.9 µM (inactive) | 0.119 µM (active) | 15.5 µM (inactive) | 19.6 µM (inactive) | 0.244 µM (active) | 14.2 µM (inactive) | 61.9 µM (inactive) | > 90.4 µM (inactive) | 56.9 µM (inactive) | 34.6 µM (inactive) | > 49.5 µM (inactive) | 41.1 µM (inactive) | 30.3 µM (inactive) | 0.155 µM (active) | < 0.01 µM (active) | 
COc1cc(/C=C2\CCC(C)C3C2=NN(C(C)=O)C3c2cc(OC)c(OC)c(OC)c2)cc(OC)c1OC (stereo unspecified) | > 100 µM (inactive) | > 100 µM (inactive) | > 91.6 µM (inactive) | > 100 µM (inactive) | > 100 µM (inactive) | > 77.6 µM (inactive) | > 100 µM (inactive) | > 100 µM (inactive) | > 100 µM (inactive) | > 100 µM (inactive) | 5.09 µM (inactive) | > 100 µM (inactive) | > 85.1 µM (inactive) | > 100 µM (inactive) | 6.93 µM (inactive) |  | > 52.6 µM (inactive) | 9.86 µM (inactive) | > 81.1 µM (inactive) | > 59.8 µM (inactive)
O=C(c1ccc(Cl)c(Cl)c1)N(Cc1cccnc1)C(=S)N(Cc1cccnc1)C(=O)c1ccc(Cl)c(Cl)c1 | 33.2 µM (inactive) | 25.2 µM (inactive) | 49.3 µM (inactive) | 30.7 µM (inactive) | 21.2 µM (inactive) | 7.06 µM (inactive) | 23.9 µM (inactive) | 37.3 µM (inactive) | 31.8 µM (inactive) | 44.7 µM (inactive) | 20.9 µM (inactive) | 22.1 µM (inactive) | 36.1 µM (inactive) | 24.4 µM (inactive) | 52.5 µM (inactive) | 25.1 µM (inactive) | 17.5 µM (inactive) | 26.7 µM (inactive) | 29.9 µM (inactive) | 24.9 µM (inactive)
OC(c1cc2ccccc2[nH]1)C1(c2cccnc2)SCCCS1 (stereo unspecified) | > 100 µM (inactive) | 59 µM (inactive) | 26.2 µM (inactive) | 79.4 µM (inactive) | 51.2 µM (inactive) | 39.5 µM (inactive) | 52.2 µM (inactive) | 27.9 µM (inactive) | > 100 µM (inactive) | 94.6 µM (inactive) | 38.5 µM (inactive) | 38.5 µM (inactive) | 43.3 µM (inactive) | 68.5 µM (inactive) | > 100 µM (inactive) | 19.1 µM (inactive) | 41.8 µM (inactive) | 69.7 µM (inactive) | > 100 µM (inactive) | 52 µM (inactive)
O=c1[nH]nc(-c2ccc3ccccc3c2)[nH]1 | > 100 µM (inactive) | > 100 µM (inactive) | > 100 µM (inactive) | > 100 µM (inactive) | > 100 µM (inactive) | > 100 µM (inactive) | > 100 µM (inactive) | > 100 µM (inactive) | > 100 µM (inactive) | > 100 µM (inactive) | > 100 µM (inactive) | > 100 µM (inactive) | > 100 µM (inactive) | 45.5 µM (inactive) | > 100 µM (inactive) | > 100 µM (inactive) | 45.1 µM (inactive) | > 100 µM (inactive) | > 100 µM (inactive) | > 100 µM (inactive)
C[C@H]1C=C2[C@@H]3CC(C)(C(=O)O)CC[C@]3(C)CC[C@]2(C)[C@]2(C)CC[C@H]3C(C)(C)[C@@H](OC(=O)c4cccc5c(=O)c6ccccc6[nH]c45)CC[C@]3(C)[C@@H]12 (stereo partly specified) | 67.5 µM (inactive) | 89.7 µM (inactive) | 38.4 µM (inactive) | 57 µM (inactive) | 61 µM (inactive) | 40 µM (inactive) | 59.8 µM (inactive) | > 100 µM (inactive) | 24 µM (inactive) | 41 µM (inactive) | 28.8 µM (inactive) | 38.2 µM (inactive) | > 100 µM (inactive) | > 100 µM (inactive) | 53.3 µM (inactive) | > 100 µM (inactive) | 66.8 µM (inactive) | 26.9 µM (inactive) | > 100 µM (inactive) | 29.7 µM (inactive)
CCn1sc2ccccc2c1=O | 20.4 µM (inactive) | 14.8 µM (inactive) | 3.78 µM (inactive) | 2.61 µM (inactive) | 4.97 µM (inactive) | 8.77 µM (inactive) | 4.05 µM (inactive) | 3.78 µM (inactive) | 24.1 µM (inactive) | 32.1 µM (inactive) | 1.6 µM (inactive) | 14.3 µM (inactive) | 17.3 µM (inactive) | 29.1 µM (inactive) | 18.1 µM (inactive) | 21.7 µM (inactive) | 1.95 µM (inactive) | 7.93 µM (inactive) | 16.5 µM (inactive) | 14.8 µM (inactive)
COC(=N)C12C(N)=NC(OC)(OC)C1(C#N)C21C(=O)N(c2ccccc2)N=C1C (stereo unspecified) | > 100 µM (inactive) | > 100 µM (inactive) | > 100 µM (inactive) |  | > 100 µM (inactive) | > 100 µM (inactive) | > 100 µM (inactive) | > 100 µM (inactive) | > 100 µM (inactive) | > 100 µM (inactive) | > 100 µM (inactive) | > 100 µM (inactive) | > 100 µM (inactive) | > 100 µM (inactive) | > 100 µM (inactive) | > 100 µM (inactive) | 37.6 µM (inactive) | > 100 µM (inactive) |  | > 100 µM (inactive)
